≈ marks a conversion by molar mass, not a printed value.
How the values were obtained:
[1] = system: Mycobacterium tuberculosis; assay: Antimycobacterial activity against Mycobacterium tuberculosis H37Rv after 2 weeks by BACTEC 460 radiometric method; type: functional; conditions: 336 h
Vero = assay: Cytotoxicity against african green monkey Vero cells up to 62.5 ug/mL after 72 hrs by MTT assay; type: cell-based; conditions: chlorocebus sabaeus

| Compound | MIC [1] | Activity (Vero) |
| --- | --- | --- |
| COc1cc2c(cc1OC)C1=NN(C(=O)Nc3ccc(C)cc3C)C(c3ccncc3)C1C2 (stereo unspecified) | 10 µM (≈ 4.43 µg/mL) |  |
| COc1cc2c(cc1OC)C1=NN(C(=O)Nc3ccc(C)cc3C)C(c3ccccc3Cl)C1C2 (stereo unspecified) | 6.25 µM (≈ 2.97 µg/mL) |  |
| COc1cc2c(cc1OC)C1=NN(C(=O)Nc3ccc(C)cc3C)C(c3ccc(F)cc3)C1C2 (stereo unspecified) | 6.25 µM (≈ 2.87 µg/mL) |  |
| COc1ccc(C2C3Cc4cc(OC)c(OC)cc4C3=NN2C(=O)Nc2ccc(C)cc2C)cc1OC (stereo unspecified) | 12.5 µM (≈ 6.27 µg/mL) |  |
| COc1cc2c(cc1OC)C1=NN(C(=O)Nc3ccc(C)cc3C)C(c3ccccc3)C1C2 (stereo unspecified) | > 12.5 µM |  |
| COc1ccc(C2C3Cc4cc(OC)c(OC)cc4C3=NN2C(=O)Nc2ccc(C)cc2C)cc1 (stereo unspecified) | > 12.5 µM |  |
| COc1cc2c(cc1OC)C1=NN(C(=O)Nc3c(C)cccc3C)C(c3ccncc3)C1C2 (stereo unspecified) | > 10 µM |  |
| COc1cc2c(cc1OC)C1=NN(C(=O)Nc3c(C)cccc3C)C(c3ccccc3Cl)C1C2 (stereo unspecified) | 6.25 µM (≈ 2.97 µg/mL) |  |
| COc1cc2c(cc1OC)C1=NN(C(=O)Nc3c(C)cccc3C)C(c3ccc(F)cc3)C1C2 (stereo unspecified) | 6.25 µM (≈ 2.87 µg/mL) |  |
| COc1ccc(C2C3Cc4cc(OC)c(OC)cc4C3=NN2C(=O)Nc2c(C)cccc2C)cc1OC (stereo unspecified) | 12.5 µM (≈ 6.27 µg/mL) |  |
| COc1cc2c(cc1OC)C1=NN(C(=O)Nc3c(C)cccc3C)C(c3ccccc3)C1C2 (stereo unspecified) | 12.5 µM (≈ 5.52 µg/mL) |  |
| COc1ccc(C2C3Cc4cc(OC)c(OC)cc4C3=NN2C(=O)Nc2c(C)cccc2C)cc1 (stereo unspecified) | > 12.5 µM |  |
| COc1cc2c(cc1OC)C1=NN(C(N)=S)C(c3ccncc3)C1C2 (stereo unspecified) | 6.25 µM (≈ 2.22 µg/mL) |  |
| COc1cc2c(cc1OC)C1=NN(C(N)=S)C(c3ccccc3Cl)C1C2 (stereo unspecified) | 6.25 µM (≈ 2.42 µg/mL) |  |
| COc1cc2c(cc1OC)C1=NN(C(N)=S)C(c3ccc(F)cc3)C1C2 (stereo unspecified) | 3.12 µM (≈ 1.16 µg/mL) | Non-toxic |
| COc1ccc(C2C3Cc4cc(OC)c(OC)cc4C3=NN2C(N)=S)cc1OC (stereo unspecified) | 12.5 µM (≈ 5.17 µg/mL) |  |
| COc1cc2c(cc1OC)C1=NN(C(N)=S)C(c3ccccc3)C1C2 (stereo unspecified) | 12.5 µM (≈ 4.42 µg/mL) |  |
| COc1ccc(C2C3Cc4cc(OC)c(OC)cc4C3=NN2C(N)=S)cc1 (stereo unspecified) | 12.5 µM (≈ 4.79 µg/mL) |  |
| NNC(=O)c1ccncc1 [ISONIAZID] | 0.78 µM (≈ 0.107 µg/mL) |  |
| CO[C@H]1/C=C/O[C@@]2(C)Oc3c(C)c(O)c4c(O)c(c(/C=N/N5CCN(C)CC5)c(O)c4c3C2=O)NC(=O)/C(C)=C\C=C\[C@H](C)[C@H](O)[C@@H](C)[C@@H](O)[C@@H](C)[C@H](OC(C)=O)[C@@H]1C [RIFAMPIN] | 0.006 µM (≈ 0.00494 µg/mL) |  |

Source: ChEMBL document CHEMBL1821612, “Discovery of novel antitubercular 3a,4-dihydro-3H-indeno[1,2-c]pyrazole-2-carboxamide/carbothioamide analogues” (Bioorg Med Chem Lett, 2011)
